Structures are written as SMILES. Counter-ions that a name gives are not always drawn.

These results are taken from patent US20050182252A1, “Novel 2'-C-methyl nucleoside derivatives” (priority 2004, published 2005).

What is called melting point is the temperature, or range, at which the solid turns liquid.

The compound `C[C@@]1(O)[C@H](O)[C@@H](COP2(=O)OCC[C@H](c3ccc(F)c(Br)c3)O2)O[C@H]1n1ccc2c(N)ncnc21` (stereo partly drawn) (as salt: salt) [Compound 16.31] gave a melting point of 122 to 125 °C.

In turn, `C[C@@]1(O)[C@H](O)[C@@H](COP2(=O)OCC[C@H](c3ccc(Cl)c(Cl)c3)O2)O[C@H]1n1ccc2c(=O)[nH]c(N)nc21` (stereo partly drawn) (as salt: salt) [Compound 17.22, 2-amino-7-(cis-5′-O-[4-(3,4-dichlorophenyl)-2-oxo-1,3,2-dioxaphosphorinan-2-yl]-2′-C methyl-beta-D-ribofuranosyl)-7H-pyrrolo[2,3-d]pyrimidin-4(3H)-one] yielded a melting point of 192 to 195 °C.

Compound `C[C@@]1(O)[C@H](O)[C@@H](COP2(=O)OCC[C@H](c3cncc(Br)c3)O2)O[C@H]1n1ccc2c(=O)[nH]c(N)nc21` (stereo partly drawn) (as salt: salt) [Compound 17.26, 2-amino-7-(cis-5′-O-[4-(5-bromo-pyridin-3-yl)-2-oxo-1,3,2-dioxaphosphorinan-2-yl]-2′-C methyl-beta-D-ribofuranosyl)-7H-pyrrolo[2,3-d]pyrimidin-4(3H)-one] yielded a melting point of 185 to 189 °C.

Regarding `C[C@@]1(O)[C@H](O)[C@@H](COP2(=O)OC[C@@H](c3ccccc3)[C@@H](c3ccccc3)O2)O[C@H]1n1ccc2c(N)ncnc21` (stereo partly drawn) (as salt: trifluoroacetic acid salt) [Compound 16.13, 4-amino-7-(cis-5′-O-14,5-cis-diphenyl-2-oxo-1,3,2-dioxaphosphorinan-2-yl]-2′-C-methyl-beta-D-ribofuranosyl)-7H-pyrrolo[2,3-d]pyrimidine trifluoroacetic acid salt], the melting point fell in the range of 174 to 177 °C.

`C[C@@]1(O)[C@H](O)[C@@H](COP2(=O)O[C@H](c3ccccc3)C[C@H](c3ccccc3)O2)O[C@H]1n1ccc2c(N)ncnc21` (stereo partly drawn) (as salt: trifluoroacetic acid salt) [Compound 16.16, 4-amino-7-(cis-5′-O-[4,6-cis-diphenyl-2-oxo-1,3,2-dioxaphosphorinan-2-yl]-2′-C-methyl-beta-D-ribofuranosyl)-7H-pyrrolo[2,3-d]pyrimidine trifluoroacetic acid salt] had a melting point of 140 to 143 °C.

As for `C[C@@]1(O)[C@H](O)[C@@H](CO[P@@]2(=O)O[C@H](c3ccccc3)C[C@H](c3ccccc3)O2)O[C@H]1n1ccc2c(N)ncnc21` (as salt: trifluoroacetic acid salt) [Compound 16.18, 4-amino-7-(trans-5′-O-[4,6-cis-diphenyl-2-oxo-1,3,2-dioxaphosphorinan-2-yl]-2′-C-methyl-beta-D-ribofuranosyl)-7H-pyrrolo[2,3-d]pyrimidine trifluoroacetic acid salt], the melting point was greater than 220 °C.

Turning to `CO[C@@H]1COP(=O)(OC[C@H]2O[C@@H](n3ccc4c(N)ncnc43)[C@](C)(O)[C@@H]2O)O[C@@H]1c1cccc(Cl)c1` (stereo partly drawn) (as salt: trifluoroacetic acid salt) [Compound 16.23], the melting point was in the range of 116 to 120 °C.

On to `CO[C@H]1COP(=O)(OC[C@H]2O[C@@H](n3ccc4c(N)ncnc43)[C@](C)(O)[C@@H]2O)O[C@@H]1c1cccc(Cl)c1` (stereo partly drawn) (as salt: trifluoroacetic acid salt) [Compound 16.24], for which the melting point was 140 to 143 °C.

`C[C@@]1(O)[C@H](O)[C@@H](COP2(=O)OCC[C@H](c3ccccn3)O2)O[C@H]1n1ccc2c(N)ncnc21` (stereo partly drawn) (as salt: trifluoroacetic acid salt) [Compound 16.33, 4-amino-7-(cis-5′-O-14-(pyridin-2-yl-2-oxo-1,3,2-dioxaphosphorinan-2-yl]-2′-C-methyl-beta-D-ribofuranosyl)-7H-pyrrolo[2,3-d]pyrimidine trifluoroacetic acid salt]: the melting point was 88 to 90 °C.

`C[C@@]1(O)[C@H](O)[C@@H](COP2(=O)OCC[C@H](c3ccc(Cl)cc3)O2)O[C@H]1n1ccc2c(N)ncnc21` (stereo partly drawn) (as salt: trifluoroacetic acid salt) [Compound 16.35, 4-amino-7-(cis-5′-O-[4-(4-chlorophenyl-2-oxo-1,3,2-dioxaphosphorinan-2-yl]-2′-C-methyl-beta-D-ribofuranosyl)-7H-pyrrolo[2,3-d]pyrimidinetrifluoroacetic acid salt] displayed a melting point of 182 to 184 °C.

`C[C@@]1(O)[C@H](O)[C@@H](COP2(=O)OCC[C@H](c3cccc(F)c3F)O2)O[C@H]1n1ccc2c(N)ncnc21` (stereo partly drawn) (as salt: trifluoroacetic acid salt) [Compound 16.36, 4-amino-7-(cis-5′-O-[4-(2,3-difluorophenyl)-2-oxo-1,3,2-dioxaphosphorinan-2-yl]-2′-C-methyl-beta-D-ribofuranosyl)-7H-pyrrolo[2,3-d]pyrimidine trifluoroacetic acid salt] gave a melting point of 177 to 180 °C.

Regarding `COc1ccc(F)c([C@H]2CCOP(=O)(OC[C@H]3O[C@@H](n4ccc5c(N)ncnc54)[C@](C)(O)[C@@H]3O)O2)c1` (stereo partly drawn) (as salt: trifluoroacetic acid salt) [Compound 16.37, 4-amino-7-(cis-5′-O-[4-(2-fluoro-5-methoxyphenyl)-2-oxo-1,3,2-dioxaphosphorinan-2-yl]-2′-C-methyl-beta-D-ribofuranosyl)-7H-pyrrolo[2,3-d]pyrimidine trifluoroacetic acid salt], the melting point is 80 to 85 °C.

Regarding `C[C@@]1(O)[C@H](O)[C@@H](COP2(=O)OCC[C@H](c3ccc(F)cc3Cl)O2)O[C@H]1n1ccc2c(N)ncnc21` (stereo partly drawn) (as salt: trifluoroacetic acid salt) [Compound 16.38, 4-amino-7-(cis-5′-O-[4-(2-chloro-4-fluorophenyl)-2-oxo-1,3,2-dioxaphosphorinan-2-yl]-2′-C-methyl-beta-D-ribofuranosyl)-7H-pyrrolo[2,3-d]pyrimidine trifluoroacetic acid salt], the melting point lay within 138 to 141 °C.

The compound `C[C@@]1(O)[C@H](O)[C@@H](COP2(=O)OCC[C@@H](c3ccccn3)O2)O[C@H]1n1ccc2c(=O)[nH]c(N)nc21` (stereo partly drawn) (as salt: trifluoroacetic acid salt) [Compound 17.8, 2-amino-7-(cis-5′-O-[4-(pyridin-2-yl)-2-oxo-1,3,2-dioxaphosphorinan-2-yl]-2′-C methyl-beta-D-ribofuranosyl)-7H-pyrrolo[2,3-d]pyrimidin-4(3H)-one trifluoroacetic acid salt] had a melting point of 180 to 190 °C.

In turn, `C[C@@]1(O)[C@H](O)[C@@H](COP2(=O)OCC[C@@H](c3ccccc3C(F)(F)F)O2)O[C@H]1n1ccc2c(=O)[nH]c(N)nc21` (stereo partly drawn) (as salt: trifluoroacetic acid salt) [Compound 17.9, 2-amino-7-(cis-5-O-[4-(2-trifluoromethylphenyl)-2-oxo-1,3,2-dioxaphosphorinan-2-yl]-2′-C methyl-beta-D-ribofuranosyl)-7H-pyrrolo[2,3-d]pyrimidin-4(3H)-one trifluoroacetic acid salt] registered a melting point of 185 to 188 °C.

The compound `C[C@@]1(O)[C@H](O)[C@@H](CO[P@]2(=O)OCC[C@H](c3cccc(Cl)c3)O2)O[C@H]1n1ccc2c(=O)[nH]c(N)nc21` (as salt: trifluoroacetic acid salt) [Compound 17.10, 2-amino-7-(cis-5′-O-[4-(R)-(3-chlorophenyl)-2-oxo-1,3,2-dioxaphosphorinan-2-yl]-2′-C methyl-beta-D-ribofuranosyl)-7H-pyrrolo[2,3-d]pyrimidin-4(3H)-one trifluoroacetic acid salt] had a melting point of 170 to 180 °C.

`C[C@@]1(O)[C@H](O)[C@@H](COP2(=O)OCC[C@H](c3cc(F)cc(F)c3)O2)O[C@H]1n1ccc2c(=O)[nH]c(N)nc21` (stereo partly drawn) (as salt: trifluoroacetic acid salt) [Compound 17.11, 2-amino-7-(cis-5-O-[4-(3,5-difluorophenyl)-2-oxo-1,3,2-dioxaphosphorinan-2-yl]-2-C methyl-beta-D-ribofuranosyl)-7H-pyrrolo[2,3-d]pyrimidin-4(3H)-one trifluoroacetic acid salt] displayed a melting point of 182 to 185 °C.

`C[C@@]1(O)[C@H](O)[C@@H](COP2(=O)OC[C@H](c3ccccc3)[C@H](c3ccccc3)O2)O[C@H]1n1ccc2c(=O)[nH]c(N)nc21` (stereo partly drawn) (as salt: trifluoroacetic acid salt) [Compound 17.17, 2-amino-7-(cis-5′-[4,5-cis-diphenyl-2-oxo-1,3,2-dioxaphosphorinan-2-yl]-2-C methyl-beta-D-ribofuranosyl)-7H-pyrrolo[2,3-d]pyrimidin-4(3H)-one trifluoroacetic acid salt] displayed a melting point of 187 to 190 °C.

`CC1(C)C[C@H](c2ccccc2)OP(=O)(OC[C@H]2O[C@@H](n3ccc4c(=O)[nH]c(N)nc43)[C@](C)(O)[C@@H]2O)O1` (stereo partly drawn) (as salt: trifluoroacetic acid salt) [Compound 17.18, 2-amino-7-(cis-5′-O-[6,6-dimethyl-4-phenyl-2-oxo-1,3,2-dioxaphosphorinan-2-yl]-2′C methyl-beta-D-ribofuranosyl)-7H-pyrrolo[2,3-d]pyrimidin-4(3H)-one trifluoroacetic acid salt]: the melting point lay within 192 to 194 °C.

Compound `C[C@@]1(O)[C@H](O)[C@@H](COP2(=O)OCC[C@H](c3cccc(F)c3F)O2)O[C@H]1n1ccc2c(=O)[nH]c(N)nc21` (stereo partly drawn) (as salt: trifluoroacetic acid salt) [Compound 17.20, 2-amino-7-(cis-5′-O[4-(2,3-difluorophenyl)-2-oxo-1,3,2-dioxaphosphorinan-2-yl]-2′-C methyl-beta-D-ribofuranosyl)-7H-pyrrolo[2,3-d]pyrimidin-4(3H)-one trifluoroacetic acid salt] registered a melting point of 215 to 220 °C.

Regarding `C[C@@]1(O)[C@H](O)[C@@H](COP2(=O)OCC[C@@H](c3cccc(Cl)c3)O2)O[C@H]1n1cnc2c(N)ncnc21` (stereo partly drawn) (as salt: trifluoroacetic acid salt) [Compound 21.1, cis-5′-O-[4-(S)-(3-chlorophenyl)-2-oxo-1,3,2-dioxaphosphorinan-2-yl]-2′-C-beta-methyl-adenosine trifluoroacetic acid salt], the melting point lay in the range of 125 to 128 °C.
